Test results published in patent publication US20100311714A1, “1H-IMIDAZO[4,5-c]QUINOLINONE COMPOUNDS” (priority 2009, published 2010).

Target: T1, PI3K gamma (Homo sapiens, UniProt P48736)
T1 construct: His tag (C); made in house; host or cells: construct from Roger Williams lab (pVL1393); baculovirus BV950; Tn5 (Trichoplusia ni) or TiniPro insect cells
Assay: PI3K gamma kinase assay (Kinase-Glo luminescence)
Format: biochemical
Conditions: read-out: PI3Kgamma/IC50
Procedure: In a more preferred assay, the kinase reaction is performed in a final volume of 10 μL per well of a low volume non binding CORNING, 384 well black plate (Cat. No. #3676). The final concentrations of ATP and phosphatidyl inositol (PI) in the assay are 1 μM and 10 μg/mL respectively. The reaction is started by the addition of ATP.
The components of the assay are added per well as follows:
50 nL test compounds in 90% DMSO per well, in columns 1-20, 8 concentrations (⅓ and 1/3.33 serial dilution step) in single. • Low control: […] of 90% DMSO in half the wells of columns 23-24 (0.45% in final). • High control: 50 nL of reference compound (e.g. compound of Example 7 in WO 2006/122806) in the other half of columns 23-24 (2.5 μM in final). • Standard: 50 nL of reference compound as just mentioned diluted as the test compounds in columns 21-22 • 20 mL ‘buffer’ are prepared per assay: • 200 μL of 1M TRIS HCl pH7.5 (10 mM in final) • 60 μL of 1M MgCl2 (3 mM in final) • 500 μL of 2M NaCl (50 mM in final) • 100 μL of 10% CHAPS (0.05% in final) • 200 μL of 100 mM DTT (1 mM in final) • 18.94 mL of nanopure water • 10 mL ‘PI’ are prepared per assay: • 200 μL of 1 mg/ml L-alpha-Phosphatidylinositol (Liver Bovine, Avanti Polar Lipids Cat. No. 840042C MW=909.12) prepared in 3% OctylGlucoside (10 μg/ml in final) • 9.8 mL of ‘buffer’ • 10 mL ‘ATP’ are prepared per assay: • 6.7 μL of 3 mM stock of ATP giving a final concentration of 1 μM per well • 10 mL of ‘buffer’ • 2.5 mL of each PI3K construct are prepared per assay in ‘PI’ with the following final concentration: • 10 nM PI3K alfa EMV B1075 • 25 nM beta EMV BV949 • 10 nM delta EMV BV1060 • 150 nM gamma EMV BV950 • 5 μL of ‘PI/PI3K’ are added per well. • 5 μl ‘ATP’ are added per well to start the reaction. • The plates are then incubated at room temperature for 60 minutes (alfa, beta, delta) or 120 minutes (gamma). • The reaction is terminated by the addition of 10 μL Kinase-Glo (Promega Cat. No. #6714). • The assay plates are read after 10 minutes in Synergy 2 reader (BioTek, Vermont USA) with an integration time of 100 milliseconds and sensitivity set to 191. • Output: The High control is around 60′000 counts and the Low control is 30′000 or lower • This luminescence assay gives a useful Z′ ratio between 0.4 and 0.7
PI3K gamma is purified in two chromatographic steps: immobilized metal affinity chromatography (IMAC) on a Ni Sepharose resin (GE Healthcare) and gel filtration (GFC) utilizing a Superdex 200 26/60 column (GE Healthcare). All buffers are chilled to 4° C. and lysis is performed chilled on ice. Column fractionation is performed rapidly at room temperature. Typically frozen insect cells are lysed in a hypertonic lysis buffer and applied to a prepared IMAC column. The resin is washed with 3-5 column volumes of lysis buffer, followed by 3-5 column volumes wash buffer containing 45 mM imidazole, and the target protein is then eluted with a buffer containing 250 mM imidazole. Fractions are analyzed by Coomassie stained SDS-PAGE gels, and fractions containing target protein are pooled and applied to a prepared GFC column. Fractions from the GFC column are analyzed by Coomassie stained SDS-PAGE gels, and fractions containing target protein are pooled. The final pool is dialyzed into a storage buffer containing 50% glycerol and stored at −20° C. The final pool is assayed for activity in the phosphoinostitol kinase assay.
IC50 is determined by a four parameter curve fitting routine that comes along with “excel fit”. A 4 Parameter logistic equation is used to calculate IC50 values (IDBS XLfit) of the percentage inhibition of each compound at 8 concentrations (usually 10, 3.0, 1.0, 0.3, 0.1, 0.030, 0.010 and 0.003 μM). Alternatively, IC50 values are calculated using idbsXLfit model 204, which is a 4 parameter logistic model.

T1 sequence (P48736 144-1102 limits assumed): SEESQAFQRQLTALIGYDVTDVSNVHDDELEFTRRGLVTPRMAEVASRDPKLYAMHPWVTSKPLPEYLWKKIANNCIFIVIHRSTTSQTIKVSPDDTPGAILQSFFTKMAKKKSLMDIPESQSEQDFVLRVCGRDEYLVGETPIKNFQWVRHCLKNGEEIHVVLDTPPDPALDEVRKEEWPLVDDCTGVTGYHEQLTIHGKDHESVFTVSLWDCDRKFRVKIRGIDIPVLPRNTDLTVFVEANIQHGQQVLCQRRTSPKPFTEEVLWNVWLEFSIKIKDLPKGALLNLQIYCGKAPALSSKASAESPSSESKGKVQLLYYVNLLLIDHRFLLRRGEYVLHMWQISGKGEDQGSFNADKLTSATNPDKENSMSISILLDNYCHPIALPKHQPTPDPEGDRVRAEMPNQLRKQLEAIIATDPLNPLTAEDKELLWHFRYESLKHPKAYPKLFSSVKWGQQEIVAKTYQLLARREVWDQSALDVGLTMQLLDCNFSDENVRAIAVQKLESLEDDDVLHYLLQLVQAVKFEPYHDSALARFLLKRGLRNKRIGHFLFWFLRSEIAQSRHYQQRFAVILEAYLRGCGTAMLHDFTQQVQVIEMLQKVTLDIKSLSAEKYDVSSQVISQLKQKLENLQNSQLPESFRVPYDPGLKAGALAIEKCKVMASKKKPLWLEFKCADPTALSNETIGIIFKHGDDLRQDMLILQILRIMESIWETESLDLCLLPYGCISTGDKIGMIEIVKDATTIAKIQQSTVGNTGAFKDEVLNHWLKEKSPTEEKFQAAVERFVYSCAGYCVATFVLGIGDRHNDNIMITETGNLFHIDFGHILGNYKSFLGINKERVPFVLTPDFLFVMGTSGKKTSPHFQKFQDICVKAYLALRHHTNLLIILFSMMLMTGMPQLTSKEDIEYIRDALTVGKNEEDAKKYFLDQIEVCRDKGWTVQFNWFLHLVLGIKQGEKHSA

SMILES | IC50
Cc1cccnc1-n1c(=O)n(C)c2cnc3ccc(-c4ccc(C(N)=O)cc4)cc3c21 [Example 3.3, 4-[3-Methyl-1-(3-methyl-pyridin-2-yl)-2-oxo-2,3-dihydro-1H-imidazo[4,5-c]quinolin-8-yl]-benzamide] | 0.322 µM
Cc1ncccc1-n1c(=O)n(C)c2cnc3ccc(-c4ccc(C(N)=O)cc4)cc3c21 [Example 2.3, 4-[3-Methyl-1-(2-methyl-pyridin-3-yl)-2-oxo-2,3-dihydro-1H-imidazo[4,5-c]quinolin-8-yl]-benzamide] | 0.23 µM
COc1ccc(-c2ccc3ncc4c(c3c2)n(-c2cccnc2C)c(=O)n4C)cc1OC [Example 2.9, 8-(3,4-Dimethoxy-phenyl)-3-methyl-1-(2-methyl-pyridin-3-yl)-1,3-dihydro-imidazo[4,5-c]quinolin-2-one] | 0.126 µM
COc1ncccc1-n1c(=O)n(C)c2cnc3ccc(-c4cnc5[nH]ccc5c4)cc3c21 [Example 1.2, 1-(2-Methoxy-pyridin-3-yl)-3-methyl-8-(1H-pyrrolo[2,3-b]pyridin-5-yl)-1,3-dihydro-imidazo[4,5-c]quinolin-2-one] | 0.168 µM
Cc1cccnc1-n1c(=O)n(C)c2cnc3ccc(-c4ccc(N(C)C)nc4)cc3c21 [Example 3.11, 8-(6-Dimethylamino-pyridin-3-yl)-3-methyl-1-(3-methyl-pyridin-2-yl)-1,3-dihydro-imidazo[4,5-c]quinolin-2-one] | 0.846 µM
CNC(=O)c1ccc(-c2ccc3ncc4c(c3c2)n(-c2ncccc2C)c(=O)n4C)cc1 [Example 3.5, N-Methyl-4-[3-methyl-1-(3-methyl-pyridin-2-yl)-2-oxo-2,3-dihydro-1H-imidazo[4,5-c]quinolin-8-yl]-benzamide] | 0.434 µM
Cc1ncccc1-n1c(=O)n(C)c2cnc3ccc(-c4ccc(N)nc4)cc3c21 [Example 2.7, 8-(6-Amino-pyridin-3-yl)-3-methyl-1-(2-methyl-pyridin-3-yl)-1,3-dihydro-imidazo[4,5-c]quinolin-2-one] | 0.388 µM
CCOc1ccc(-c2ccc3ncc4c(c3c2)n(-c2cnccc2C)c(=O)n4C)cn1 [Example 4.2, 8-(6-Ethoxy-pyridin-3-yl)-3-methyl-1-(4-methyl-pyridin-3-yl)-1,3-dihydro-imidazo[4,5-c]quinolin-2-one] | 0.546 µM
Cc1ncccc1-n1c(=O)n(C)c2cnc3ccc(-c4cnc(N)c(C(F)(F)F)c4)cc3c21 [Example 2.11, 8-(6-Amino-5-trifluoromethyl-pyridin-3-yl)-3-methyl-1-(2-methyl-pyridin-3-yl)-1,3-dihydro-imidazo[4,5-c]quinolin-2-one] | 0.124 µM
CNc1ccc(-c2ccc3ncc4c(c3c2)n(-c2cccnc2C)c(=O)n4C)cn1 [Example 2.13, 3-Methyl-8-(6-methylamino-pyridin-3-yl)-1-(2-methyl-pyridin-3-yl)-1,3-dihydro-imidazo[4,5-c]quinolin-2-one] | 0.195 µM
COc1ccc(-c2ccc3ncc4c(c3c2)n(-c2cccnc2C)c(=O)n4C)cn1 [Example 2.12, 8-(6-Methoxy-pyridin-3-yl)-3-methyl-1-(2-methyl-pyridin-3-yl)-1,3-dihydro-imidazo[4,5-c]quinolin-2-one] | 0.242 µM
COc1ncccc1-n1c(=O)n(C)c2cnc3ccc(-c4ccc(C(N)=O)cc4)cc3c21 [Example 1.6, 4-[1-(2-Methoxy-pyridin-3-yl)-3-methyl-2-oxo-2,3-dihydro-1H-imidazo[4,5-c]quinolin-8-yl]-benzamide] | 0.12 µM
COc1ccc(-c2ccc3ncc4c(c3c2)n(-c2ncccc2C)c(=O)n4C)cc1OC [Example 3.10, 8-(3,4-Dimethoxy-phenyl)-3-methyl-1-(3-methyl-pyridin-2-yl)-1,3-dihydro-imidazo[4,5-c]quinolin-2-one] | 0.307 µM
COc1ccc(-c2ccc3ncc4c(c3c2)n(-c2cnccc2C)c(=O)n4C)cn1 [Example 4.3, 8-(6-Methoxy-pyridin-3-yl)-3-methyl-1-(4-methyl-pyridin-3-yl)-1,3-dihydro-imidazo[4,5-c]quinolin-2-one] | 0.439 µM
Cn1c(=O)n(-c2cccnc2F)c2c3cc(-c4cnc(N)c(C(F)(F)F)c4)ccc3ncc21 [Example 6.2, 8-(6-Amino-5-trifluoromethyl-pyridin-3-yl)-1-(2-fluoro-pyridin-3-yl)-3-methyl-1,3-dihydro-imidazo[4,5-c]quinolin-2-one] | 0.139 µM
Cc1cccnc1-n1c(=O)n(C)c2cnc3ccc(-c4cnc(N)c(C(F)(F)F)c4)cc3c21 [Example 3.12, 8-(6-Amino-5-trifluoromethyl-pyridin-3-yl)-3-methyl-1-(3-methyl-pyridin-2-yl)-1,3-dihydro-imidazo[4,5-c]quinolin-2-one] | 0.202 µM
Cn1c(=O)n(-c2cccnc2)c2c3cc(-c4ccc(CO)nc4)ccc3ncc21 [Example 5.1, 8-(6-Hydroxymethyl-pyridin-3-yl)-3-methyl-1-pyridin-3-yl-1,3-dihydro-imidazo[4,5-c]quinolin-2-one] | 0.943 µM
CCOc1ccc(-c2ccc3ncc4c(c3c2)n(-c2cccnc2F)c(=O)n4C)cn1 [Example 6.1, 8-(6-Ethoxy-pyridin-3-yl)-1-(2-fluoro-pyridin-3-yl)-3-methyl-1,3-dihydro-imidazo[4,5-c]quinolin-2-one] | 0.206 µM
CN(C)c1ccc(-c2ccc3ncc4c(c3c2)n(-c2cccnc2)c(=O)n4C)cn1 [Example 5.3, 8-(6-Dimethylamino-pyridin-3-yl)-3-methyl-1-pyridin-3-yl-1,3-dihydro-imidazo[4,5-c]quinolin-2-one] | 0.362 µM
Cc1ncccc1-n1c(=O)n(C)c2cnc3ccc(-c4ccc(CO)nc4)cc3c21 [Example 2.6, 8-(6-Hydroxymethyl-pyridin-3-yl)-3-methyl-1-(2-methyl-pyridin-3-yl)-1,3-dihydro-imidazo[4,5-c]quinolin-2-one] | 0.913 µM
CCOc1ccc(-c2ccc3ncc4c(c3c2)n(-c2ncccc2C)c(=O)n4C)cn1 [Example 3.6, 8-(6-Ethoxy-pyridin-3-yl)-3-methyl-1-(3-methyl-pyridin-2-yl)-1,3-dihydro-imidazo[4,5-c]quinolin-2-one] | 0.522 µM
CNc1ncc(-c2ccc3ncc4c(c3c2)n(-c2ncccc2C)c(=O)n4C)cn1 [Example 3.4, 3-Methyl-8-(2-methylamino-pyrimidin-5-yl)-1-(3-methyl-pyridin-2-yl)-1,3-dihydro-imidazo[4,5-c]quinolin-2-one] | 0.386 µM
